Test system: NCI-H841 complex tumor spheroid viability
Experiment: Anticancer human tumor NCI-H841 cell line growth inhibition;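 note: spheroids exposed to compounds for 7 days before readout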;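 for viability, T/C: 100% = DMSO vehicle control wells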
Conditions: for IC50: curve of first compound; for viability, T/C: stronger effect = lower value
Excerpt: Multicellular complex tumor spheroid response to DNA repair inhibitors in combination with DNA-damaging drugs
This study explores the anticancer activities of DNA-damaging drugs and inhibitors of DNA damage repair, both as single agents and in combinations. Complex tumor spheroids comprised of malignant cells, endothelial cells and mesenchymal stem cells served as an in vitro model for human solid tumors. This model system incorporates physiologically relevant features and patient-derived or established malignant cell lines with clinically relevant genetic alterations from many tumor types. Twenty-six patient-derived or established malignant cell lines were evaluated representing sarcoma, melanoma, small cell lung cancer (SCLC), non-small cell lung cancer (NSCLC), as well as bladder, ovarian and pancreatic cancers. The concentration ranges selected for each drug and investigational agent were based upon clinically achievable concentrations if the clinical Cmax of the agent was known.
Compounds. The drugs and compounds olaparib (NSC753686), talazoparib (NSC767125), berzosertib (NSC777718), elimusertib (NSC800525), nedisertib (NSC802822), VX-984 (NSC792969), AZD-1390 (NSC803789), temozolomide (NSC362856), topotecan (NSC609699), trabectedin (NSC813783), staurosporine (NSC755774), and gemcitabine (NSC613327) were obtained from the National Cancer Institute (NCI) Developmental Therapeutics Program Chemical Repository. The FDA-approved anticancer drug set is available from the Developmental Therapeutics Program at https://dtp.cancer.gov/organization/dscb/obtaining/available_plates.htm. […] The stock solutions were prepared in dimethyl sulfoxide (DMSO, Sigma-Aldrich, St. Louis, MO, cat. D2650) at 400-fold the tested concentration and stored at -70 degrees C. Prior to their use, the stock solutions were diluted in fresh medium and the final DMSO concentration in the assay was 0.25% (v/v). All drugs and investigational agents were tested over a range starting from a high concentration at or near the clinical Cmax and decreasing in half-log increments. If the clinical Cmax for an agent had not been determined, the highest concentration tested was 10 microM.
Cell Lines. The patient-derived cancer cell (PDC) lines: 156681-154-R-J1-PDC, 283228-195-R-J1-PDC, 287954-098-R-J1-PDC, 292921-168-R-J2-PDC, 349418-098-R-PDC, 425362-245-T-J1-PDC, 556581-035-R-J1-PDC, and BL0293-F563-PDC were received from the NCI Patient-Derived Models Repository (PDMR, https://pdmr.cancer.gov). The established cell lines HS-SY-2 (RRID:CVCL_8719), MPNST, and SYO-1 (RRID:CVCL_7146) were obtained from the Sloan Kettering Institute. The alveolar soft parts sarcoma cell line ASPS-1 (RRID:CVCL_S738) was established at the NCI and grown from internal seed stocks. The following established cell lines were purchased from the American Type Culture Collection (ATCC, Manassas, VA): G-401 (ATCC, cat. CRL-1441, RRID:CVCL_0270), SW982 (ATCC, cat. HTB-93, RRID:CVCL_1734), VA-ES-BJ (ATCC, cat. CRL-2138, RRID:CVCL_1785), NCI-H719 (ATCC, cat. CRL-5837, RRID:CVCL_1582), NCI-H196 (ATCC, cat. CRL-5823, RRID:CVCL_1509), NCI-H841 (ATCC, cat. CRL-5845, RRID:CVCL_1595), NCI-H1618 (ATCC, cat. CRL-5879, RRID:CVCL_1480), NCI-H1876 (ATCC, cat. CRL-5902, RRID:CVCL_1503), DMS 114 (ATCC, cat. CRL-2066; RRID:CVCL_1174), NCI-H211 (ATCC, cat. CRL-5824; RRID:CVCL_1529), and SW 1271 (ATCC, cat. CRL-2177, RRID:CVCL_1716). The small cell lung cancer cell line COR-L88 was purchased from Sigma-Aldrich (cat. 92031917-1VL, RRID:CVCL_1141). The non-small cell lung cancer cell lines NCI-H226 (RRID:CVCL_1544) and NCI-H322M (RRID:CVCL_1557) were established at the NCI and grown from internal seed stocks. Pooled donor human umbilical vein endothelial cells (HUVEC, Lonza, cat. CC-2519) and human mesenchymal stem cells (hMSC, Lonza, cat. PT-2501) were purchased from Lonza (Walkersville, MD).
Cell Culture. All cells were maintained in an incubator at 37 degrees C and 5% CO2 with 95% humidity. […]

[1] = second compound 0.003 µM, first compound 0.00949 µM
[2] = second compound 0.003 µM, first compound 0.03 µM
[3] = second compound 0.003 µM, first compound 0.0949 µM
[4] = second compound 0.003 µM, first compound 0.3 µM
[5] = second compound 0.003 µM, first compound 0.949 µM
[6] = second compound 0.003 µM, first compound 3 µM
[7] = second compound 0.00949 µM, first compound 0.00949 µM
[8] = second compound 0.00949 µM, first compound 0.03 µM
[9] = second compound 0.00949 µM, first compound 0.0949 µM
[10] = second compound 0.00949 µM, first compound 0.3 µM
[11] = second compound 0.00949 µM, first compound 0.949 µM
[12] = second compound 0.00949 µM, first compound 3 µM
[13] = second compound 0.03 µM, first compound 0.00949 µM
[14] = second compound 0.03 µM, first compound 0.03 µM
[15] = second compound 0.03 µM, first compound 0.0949 µM
[16] = second compound 0.03 µM, first compound 0.3 µM
[17] = second compound 0.03 µM, first compound 0.949 µM
[18] = second compound 0.03 µM, first compound 3 µM
[19] = second compound 0.0949 µM, first compound 0.00949 µM
[20] = second compound 0.0949 µM, first compound 0.03 µM
[21] = second compound 0.0949 µM, first compound 0.0949 µM
[22] = second compound 0.0949 µM, first compound 0.3 µM
[23] = second compound 0.0949 µM, first compound 0.949 µM
[24] = second compound 0.0949 µM, first compound 3 µM
[25] = second compound 0.3 µM, first compound 0.00949 µM
[26] = second compound 0.3 µM, first compound 0.03 µM
[27] = second compound 0.3 µM, first compound 0.0949 µM
[28] = second compound 0.3 µM, first compound 0.3 µM
[29] = second compound 0.3 µM, first compound 0.949 µM
[30] = second compound 0.3 µM, first compound 3 µM

SMILES	IC50 (second compound 0.003 µM)	IC50 (second compound 0.00949 µM)	IC50 (second compound 0.03 µM)	IC50 (second compound 0.0949 µM)	IC50 (second compound 0.3 µM)	viability, T/C [3]	viability, T/C [4]	viability, T/C [5]	viability, T/C [6]	viability, T/C [9]	viability, T/C [10]	viability, T/C [11]	viability, T/C [12]	viability, T/C [15]	viability, T/C [16]	viability, T/C [17]	viability, T/C [18]	viability, T/C [21]	viability, T/C [22]	viability, T/C [23]	other results
CNCc1ccc(-c2cc(-c3nc(-c4ccc(S(=O)(=O)C(C)C)cc4)cnc3N)on2)cc1 + CC[C@@]1(O)C(=O)OCc2c1cc1n(c2=O)Cc2cc3c(CN(C)C)c(O)ccc3nc2-1	56.1 nM	< 9.49 nM	< 9.49 nM	< 9.49 nM	< 9.49 nM	25.8%	5.41%	1.29%	0.44%	7.71%	1.95%	1%	0.31%	1.25%	1.64%	0.71%	0.17%	0.92%	0.89%	0.76%	viability, T/C [1]: 89.3%; viability, T/C [2]: 78.7%; viability, T/C [7]: 49.2%; viability, T/C [8]: 35.6%; viability, T/C [13]: 1.53%; viability, T/C [14]: 4.09%; viability, T/C [19]: 1.32%; viability, T/C [20]: 3.66%; viability, T/C [24]: 0.15%; viability, T/C [25]: 1.45%; viability, T/C [26]: 1.41%; viability, T/C [27]: 1.07%; viability, T/C [28]: 0.61%; viability, T/C [29]: 2.25%; viability, T/C [30]: 0.16%
Cn1ncnc1[C@H]1c2n[nH]c(=O)c3cc(F)cc(c23)N[C@@H]1c1ccc(F)cc1 + CC[C@@]1(O)C(=O)OCc2c1cc1n(c2=O)Cc2cc3c(CN(C)C)c(O)ccc3nc2-1	< 9.49 nM	< 9.49 nM	< 9.49 nM	< 9.49 nM	< 9.49 nM	29.9%	8.52%	1.44%	1.96%	2.55%	1.48%	1.52%	2.21%	1.39%	1.4%	1.41%	1.81%	1.61%	1.69%	1.52%	viability, T/C [1]: 47.7%; viability, T/C [2]: 40.1%; viability, T/C [7]: 5.87%; viability, T/C [8]: 2.75%; viability, T/C [13]: 1.67%; viability, T/C [14]: 1.74%; viability, T/C [19]: 1.86%; viability, T/C [20]: 1.68%; viability, T/C [24]: 1.31%; viability, T/C [25]: 0.97%; viability, T/C [26]: 0.99%; viability, T/C [27]: 0.94%; viability, T/C [28]: 0.9%; viability, T/C [29]: 0.63%; viability, T/C [30]: 0.52%
O=C(c1cc(Cc2n[nH]c(=O)c3ccccc23)ccc1F)N1CCN(C(=O)C2CC2)CC1 + CC[C@@]1(O)C(=O)OCc2c1cc1n(c2=O)Cc2cc3c(CN(C)C)c(O)ccc3nc2-1	1480 nM	< 94.9 nM	< 94.9 nM	< 94.9 nM	< 94.9 nM	79.5%	75.1%	60.5%	33.6%	19.2%	17.4%	12.7%	3.98%	1.3%	1.56%	1.06%	1.3%	7.65%	1.58%	1.52%	viability, T/C (second compound 0.003 µM, first compound 9.49 µM): 6.04%; viability, T/C (second compound 0.003 µM, first compound 30 µM): 2.34%; viability, T/C (second compound 0.00949 µM, first compound 9.49 µM): 7.48%; viability, T/C (second compound 0.00949 µM, first compound 30 µM): 2.29%; viability, T/C (second compound 0.03 µM, first compound 9.49 µM): 1.43%; viability, T/C (second compound 0.03 µM, first compound 30 µM): 1.97%; viability, T/C [24]: 1.38%; viability, T/C (second compound 0.0949 µM, first compound 9.49 µM): 1.27%; viability, T/C (second compound 0.0949 µM, first compound 30 µM): 1.95%; viability, T/C [27]: 0.94%; viability, T/C [28]: 1.16%; viability, T/C [29]: 0.93%; viability, T/C [30]: 0.82%; viability, T/C (second compound 0.3 µM, first compound 9.49 µM): 0.61%; viability, T/C (second compound 0.3 µM, first compound 30 µM): 0.6%

Source: PubChem BioAssay AID1845213 (Molecular Pharmacology Branch, DTP, NCI, 2023)
